These results are taken from patent publication US8362065B2, “Carbazole carboxamide compounds useful as kinase inhibitors” (Bristol-Myers Squibb Company, priority 2008, dated 2013).

Counter-ions that a name gives are not always drawn.

This assay concerns the target T1, human recombinant Btk (Homo sapiens, UniProt Q06187).
T1 construct: purchased Invitrogen Corporation
Kind of assay: Human Recombinant Btk Enzyme Assay. Format: biochemical. As to conditions: human recombinant Btk 1 nM, ATP 20 μM, 60 min at room temperature; read-out: IC50 for Inhibition of Btk.

T1 sequence (Q06187 whole entry): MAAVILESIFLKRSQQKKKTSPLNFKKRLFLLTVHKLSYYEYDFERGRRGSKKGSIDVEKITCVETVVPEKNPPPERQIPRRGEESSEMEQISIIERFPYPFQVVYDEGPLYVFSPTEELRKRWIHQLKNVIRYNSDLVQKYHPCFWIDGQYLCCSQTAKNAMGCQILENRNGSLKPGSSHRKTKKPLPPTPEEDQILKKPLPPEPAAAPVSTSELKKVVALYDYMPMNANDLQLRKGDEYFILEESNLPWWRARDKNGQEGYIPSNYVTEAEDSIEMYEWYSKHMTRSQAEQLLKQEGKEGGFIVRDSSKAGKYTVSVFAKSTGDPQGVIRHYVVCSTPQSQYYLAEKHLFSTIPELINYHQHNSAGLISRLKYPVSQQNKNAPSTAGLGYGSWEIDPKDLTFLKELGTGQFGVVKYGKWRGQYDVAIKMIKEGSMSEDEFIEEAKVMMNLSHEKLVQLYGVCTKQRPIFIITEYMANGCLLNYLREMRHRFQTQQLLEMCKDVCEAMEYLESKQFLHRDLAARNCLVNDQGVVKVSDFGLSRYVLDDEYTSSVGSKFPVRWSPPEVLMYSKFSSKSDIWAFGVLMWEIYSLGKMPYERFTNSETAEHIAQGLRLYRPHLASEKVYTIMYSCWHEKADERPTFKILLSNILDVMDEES

One may read the IC50 as the point on the concentration scale where inhibition reaches its midpoint. “7-(1,2-dihydroxyethyl)-4-(2-methyl-3-(6-methyl-1-oxoisoindolin-2-yl)phenyl)-9H-carbazole-1-carboxamide^[b] [Example 70-12]”: the IC50 was determined as 1.3 nM.

Turning to `Cc1c(NC(=O)c2ccc(F)cc2)cccc1-c1ccc(C(N)=O)c2[nH]c3cc(C(O)CO)ccc3c12` (racemic) [Example 70-2], the IC50 was 2.2 nM.

As to `Cc1c(-c2ccc(C(N)=O)c3[nH]c4cc(C(O)CO)ccc4c23)cccc1N1Cc2ccccc2C1=O` (racemic) [Example 70-3, 7-((RS)-1,2-dihydroxyethyl)-4-(2-methyl-3-(1-oxoisoindolin-2-yl)phenyl)-9H-carbazole-1-carboxamide], the half-maximal inhibitory concentration (IC50) stood at 2.3 nM.

Regarding `Cc1ccc2c(c1)C(=O)N(c1cccc(-c3ccc(C(N)=O)c4[nH]c5cc(C(O)CO)ccc5c34)c1C)C2` (racemic) [Example 70-5, 7-((RS)-1,2-dihydroxyethyl)-4-(2-methyl-3-(6-methyl-1-oxoisoindolin-2-yl)phenyl)-9H-carbazole-1-carboxamide], the half-maximal inhibitory concentration (IC50) worked out at 1.6 nM.

Consider `Cc1c(-c2ccc(C(N)=O)c3[nH]c4cc(C(O)CO)ccc4c23)cccc1N1Cc2ccc(F)cc2C1=O` (racemic) [Example 70-6, 7-((RS)-1,2-dihydroxyethyl)-4-(3-(6-fluoro-1-oxoisoindolin-2-yl)-2-methylphenyl)-9H-carbazole-1-carboxamide], for which the IC50 was 0.8 nM.

As to `Cc1c(-c2ccc(C(N)=O)c3[nH]c4cc(C(=O)N5CCN(C)CC5)ccc4c23)cccc1N(C(C)C)S(C)(=O)=O` (single isomer, unassigned) [Example 10-2, 4-(3-(N-isopropylmethylsulfonamido)-2-methylphenyl)-7-(4-methylpiperazine-1-carbonyl)-9H-carbazole-1-carboxamide], the IC50 is 4500 nM.

Regarding `Cc1c(-c2ccc(C(N)=O)c3[nH]c4cc(C(=O)N5CCN(C)CC5)ccc4c23)cccc1N(C(C)C)S(C)(=O)=O` (single isomer, unassigned) [Example 10-3, 4-(3-(N-isopropylmethylsulfonamido)-2-methylphenyl)-7-(4-methylpiperazine-1-carbonyl)-9H-carbazole-1-carboxamide], the IC50 was 4900 nM.

Consider `CN1CCN(C(=O)C2CCc3c([nH]c4c(C(N)=O)ccc(Br)c34)C2)CC1` (stereo not shown) [Example 1-3, 5-bromo-2-(4-methylpiperazine-1-carbonyl)-2,3,4,9-tetrahydro-1H-carbazole-8-carboxamide], for which the IC50 amounted to 490 nM.

For `CN1CCN(C(=O)c2ccc3c(c2)[nH]c2c(C(N)=O)ccc(-c4nccc5ccccc45)c23)CC1` [Example 2-2, 4-(isoquinolin-1-yl)-7-(4-methylpiperazine-1-carbonyl)-9H-carbazole-1-carboxamide], the half-inhibitory concentration (IC50) is 1300 nM.

For the compound `CN1CCN(C(=O)c2ccc3c(c2)[nH]c2c(C(N)=O)ccc(-c4cc(F)ccc4F)c23)CC1` [Example 2-12, 4-(2,5-difluorophenyl)-7-(4-methylpiperazine-1-carbonyl)-9H-carbazole-1-carboxamide], the IC50 was 16 nM.

Turning to `CN1CCN(C(=O)c2ccc3c(c2)[nH]c2c(C(N)=O)ccc(-c4cc(Cl)ccc4F)c23)CC1` [Example 2-13, 4-(5-chloro-2-fluorophenyl)-7-(4-methylpiperazine-1-carbonyl)-9H-carbazole-1-carboxamide], the half-inhibitory concentration (IC50) was determined as 15 nM.

`NC(=O)c1ccc(-c2cc(C(=O)O)ccc2F)c2c1[nH]c1cc(C(=O)N3CCOCC3)ccc12` [Example 2-16, 3-(1-carbamoyl-7-(morpholine-4-carbonyl)-9H-carbazol-4-yl)-4-fluorobenzoic acid]: the IC50 worked out at 16 nM.

Regarding `CN1CCN(C(=O)c2ccc3[nH]c4c(C(N)=O)ccc(-c5ccccc5F)c4c3c2)CC1` [Example 2-18, 4-(2-fluorophenyl)-6-(4-methylpiperazine-1-carbonyl)-9H-carbazole-1-carboxamide], the IC50 came to 16 nM.

On to `CCNC(=O)c1cc2c(-c3ccc(C(N)=O)c4[nH]c5cc(C(=O)N6CCN(C)CC6)ccc5c34)cccc2[nH]1` [Example 2-24, 4-(2-(ethylcarbamoyl)-1H-indol-4-yl)-7-(4-methylpiperazine-1-carbonyl)-9H-carbazole-1-carboxamide], for which the IC50 turned out to be 800 nM.

Turning to `CN1CCN(C(=O)c2ccc3c(c2)[nH]c2c(C(N)=O)ccc(-c4cccc5[nH]c(C(=O)Nc6ccc(F)cc6)cc45)c23)CC1` [Example 2-25, 4-(2-(4-fluorophenylcarbamoyl)-1H-indol-4-yl)-7-(4-methylpiperazine-1-carbonyl)-9H-carbazole-1-carboxamide], the 50% inhibitory concentration (IC50) was 3100 nM.

As to `CC(=O)Nc1ccc(F)c(-c2ccc(C(N)=O)c3[nH]c4cc(C(=O)N5CCN(C)CC5)ccc4c23)c1` [Example 2-35, 4-(5-acetamido-2-fluorophenyl)-7-(4-methylpiperazine-1-carbonyl)-9H-carbazole-1-carboxamide], the IC50 worked out at 16 nM.

With `CN1CCN(C(=O)c2ccc3c(c2)[nH]c2c(C(N)=O)ccc(-c4cc(NC(=O)c5ccc(F)cc5)ccn4)c23)CC1` [Example 2-43, 4-(4-(4-fluorobenzamido)pyridin-2-yl)-7-(4-methylpiperazine-1-carbonyl)-9H-carbazole-1-carboxamide], the IC50 turned out to be 520 nM.

For the compound `NC(=O)c1ccc(-c2ccccc2F)c2c1[nH]c1cc(C(=O)N3CCOCC3)ccc12` [Example 3-9, 4-(2-fluorophenyl)-7-(morpholine-4-carbonyl)-9H-carbazole-1-carboxamide], the IC50 came out at 17 nM.

Regarding `CCOc1ccc2ccccc2c1-c1ccc(C(N)=O)c2[nH]c3cc(C(=O)N4CCN(C)CC4)ccc3c12` [Example 3-18], the half-inhibitory concentration (IC50) worked out at 2700 nM.

`CN1CCN(C(=O)c2ccc3c(c2)[nH]c2c(C(N)=O)ccc(-c4cccc5cccnc45)c23)CC1` [Example 3-19]: the IC50 was determined as 1800 nM.

As for `CCOc1ccc(F)c(-c2ccc(C(N)=O)c3[nH]c4cc(C(=O)N5CCN(C)CC5)ccc4c23)c1` [Example 3-39], the IC50 was 16 nM.

As to `CN1CCN(C(=O)c2ccc3c(c2)[nH]c2c(C(N)=O)ccc(-c4ccccc4)c23)CC1` [Example 3-45], the 50% inhibitory concentration (IC50) came to 16 nM.

On to `CN1CCN(C(=O)c2ccc3c(c2)[nH]c2c(C(N)=O)ccc(-c4cccc(-c5ccccc5)c4)c23)CC1` [Example 3-48], for which the concentration for half-maximal inhibition (IC50) worked out at 390 nM.

For `CN1CCN(C(=O)c2ccc3c(c2)[nH]c2c(C(N)=O)ccc(-c4cccc5c4oc4ccccc45)c23)CC1` [Example 3-49], the half-maximal inhibitory concentration (IC50) amounted to 690 nM.

For `CN1CCN(C(=O)c2ccc3c(c2)[nH]c2c(C(N)=O)ccc(-c4ccccc4Cl)c23)CC1` [Example 3-69], the half-inhibitory concentration (IC50) came out at 15 nM.

`CN1CCN(C(=O)c2ccc3c(c2)[nH]c2c(C(N)=O)ccc(-c4cccc5[nH]c(C(=O)N6CCCC6)cc45)c23)CC1` [Example 3-75]: the 50% inhibitory concentration (IC50) is 920 nM.

For `CN1CCN(C(=O)c2ccc3c(c2)[nH]c2c(C(N)=O)ccc(-c4c[nH]c5cc(-c6ccc(F)cc6)ccc45)c23)CC1` [Example 3-83], the half-inhibitory concentration (IC50) stood at 940 nM.

In the case of `Cc1c(-c2ccc(C(N)=O)c3[nH]c4c(c23)CCC(C(=O)NCCCN(C)C)C4)cccc1N1Cc2ccccc2C1=O` (stereo not shown) [Example 3-101], the half-inhibitory concentration (IC50) was 18 nM.

Turning to `CC(C)(C)OC(=O)n1cc(-c2ccc(C(N)=O)c3[nH]c4c(c23)CCC(C(=O)NC2CCOCC2)C4)cn1` (stereo not shown) [Example 3-116], the 50% inhibitory concentration (IC50) was determined as 1600 nM.

`Cc1c(-c2ccc(C(N)=O)c3[nH]c4c(c23)CCC(C(=O)N2CCN(C)CC2)C4)cccc1N1Cc2ccccc2C1=O` (stereo not shown) [Example 3-122]: the IC50 is 18 nM.

`Cc1c(-c2ccc(C(N)=O)c3[nH]c4c(c23)CCC(C(=O)N(C)C2CCN(C)CC2)C4)cccc1N1Cc2ccc(C(F)(F)F)cc2C1=O` (stereo not shown) [Example 3-130]: the concentration for half-maximal inhibition (IC50) was found to be 2 nM.

Regarding `Cc1nc(N)sc1-c1ccc(C(N)=O)c2[nH]c3c(c12)CCC(C(=O)NC1CCOCC1)C3` (stereo not shown) [Example 4-3, 5-(2-amino-4-methylthiazol-5-yl)-N^2-(tetrahydro-2H-pyran-4-yl)-2,3,4,9-tetrahydro-1H-carbazole-2,8-dicarboxamide], the half-inhibitory concentration (IC50) worked out at 390 nM.

As for `Cc1c(NC(=O)c2cccnc2)cccc1-c1ccc(C(N)=O)c2[nH]c3cc(C(=O)N4CCN(C)CC4)ccc3c12` [Example 5-7], the IC50 was found to be 18 nM.

Turning to `Cc1c(NC(=O)c2ncc[nH]2)cccc1-c1ccc(C(N)=O)c2[nH]c3cc(C(=O)N4CCN(C)CC4)ccc3c12` [Example 5-9, 4-(3-(1H-imidazole-2-carboxamido)-2-methylphenyl)-7-(4-methylpiperazine-1-carbonyl)-9H-carbazole-1-carboxamide (prepared as the TFA salt)], the 50% inhibitory concentration (IC50) turned out to be 1.9 nM.

`Cc1c(NC(=O)c2nc(C(C)C)cs2)cccc1-c1ccc(C(N)=O)c2[nH]c3cc(C(=O)N4CCN(C)CC4)ccc3c12` [Example 5-16]: the IC50 was found to be 18 nM.

Turning to `Cc1c(NC(=O)c2ncccc2O)cccc1-c1ccc(C(N)=O)c2[nH]c3cc(C(=O)N4CCN(C)CC4)ccc3c12` [Example 5-19, 4-(3-(3-hydroxypicolinamido)-2-methylphenyl)-7-(4-methylpiperazine-1-carbonyl)-9H-carbazole-1-carboxamide (prepared as the TFA salt)], the half-maximal inhibitory concentration (IC50) stood at 17 nM.

In the case of `Cc1c(NC(=O)C2(c3ccc(F)cc3)CC2)cccc1-c1ccc(C(N)=O)c2[nH]c3cc(C(=O)N4CCN(C)CC4)ccc3c12` [Example 5-42], the IC50 was 15 nM.

As for `Cc1c(NC(=O)C(C)(C)c2ccc(Cl)cc2)cccc1-c1ccc(C(N)=O)c2[nH]c3cc(C(=O)N4CCN(C)CC4)ccc3c12` [Example 5-44], the concentration for half-maximal inhibition (IC50) stood at 16 nM.

Take `Cc1ccc(C(=O)Nc2cccc(-c3ccc(C(N)=O)c4[nH]c5cc(C(=O)N6CCN(C)CC6)ccc5c34)c2C)cc1` [Example 5-58, 4-(2-methyl-3-(4-methylbenzamido)phenyl)-7-(4-methylpiperazine-1-carbonyl)-9H-carbazole-1-carboxamide (prepared as the TFA salt)]: the IC50 was 2.2 nM.

Take `Cc1c(NC(=O)CC(C)C)cccc1-c1ccc(C(N)=O)c2[nH]c3cc(C(=O)N4CCN(C)CC4)ccc3c12` [Example 5-62, 4-(2-methyl-3-(3-methylbutanamido)phenyl)-7-(4-methylpiperazine-1-carbonyl)-9H-carbazole-1-carboxamide (prepared as the TFA salt)]: the IC50 is 17 nM.
